This note sets out measurements from paper PMC10987960.

Molecules are shown by their SMILES.

The target of one test is T1, PEDV 3CL^pro (Porcine epidemic diarrhea virus CV777, UniProt P0C6Y4).
T1 construct: gene rep; mature nsp5 cut from replicase polyproteins pp1a/pp1ab; N- and C-terminal His tags (kept, no cleavage told), pET-28a(+), E. coli BL21(DE3), nickel column; docking used PDB 4XFQ
T1 sequence (P0C6Y4 2998-3299 limits assumed): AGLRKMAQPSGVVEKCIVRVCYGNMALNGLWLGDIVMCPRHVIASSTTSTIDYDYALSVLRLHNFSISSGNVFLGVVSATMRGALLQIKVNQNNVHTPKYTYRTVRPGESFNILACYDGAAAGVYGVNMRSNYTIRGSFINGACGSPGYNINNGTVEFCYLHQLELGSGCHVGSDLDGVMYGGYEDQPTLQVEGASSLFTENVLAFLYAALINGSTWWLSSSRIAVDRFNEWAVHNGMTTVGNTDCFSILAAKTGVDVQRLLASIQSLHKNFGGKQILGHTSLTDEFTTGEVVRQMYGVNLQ
Put plainly: FRET protease assay, Dabcyl/Edans peptide. The format is biochemical. To be noted: read-out: Inhibitory rate. The text has this: FRET protease assay, Dabcyl/Edans peptide on PEDV 3CL^pro
Consider `O=C(O[C@@H]1Cc2c(O)cc(O)cc2O[C@H]1c1cc(O)c(O)c(O)c1)c1cc(O)c(O)c(O)c1` [compound 1, (−)-Gallocatechin gallate], for which the inhibition at 20 µM came to 97.65 ± 0.35%.
The same measure, in the same setting: with `O=c1c(O)c(-c2ccc(O)c(O)c2)oc2cc(O)ccc12` [compound 2, Fisetin] the figure was 96.8 ± 2.64%; with `O=c1c(O)c(-c2ccc(O)c(O)c2)oc2cc(O)c(O)c(O)c12` [compound 3, Quercetagetin], 91.8 ± 2.74%.
Same read-out and setting: the result for `O=c1c(-c2ccc(O)cc2)coc2cc(O)ccc12` [compound 4, Daidzein] reads 91.26 ± 0.85%.
On to `O=c1c(O)c(-c2cc(O)c(O)c(O)c2)oc2cc(O)cc(O)c12` [compound 6, Myricetin], for which the inhibition at 20 µM came to 75.3 ± 2.33%.

For another test, the target named is T1, PEDV 3CL^pro. Put plainly: FRET protease assay, Dabcyl/Edans peptide. It is filed as biochemical.
Conditions: not given
The term IC50 denotes the concentration that inhibits the measured activity by half. Compound `O=c1cc(-c2ccccc2)oc2cc(O)c(O)c(O)c12` [Baicalein] came in with an IC50 of 9.5 ± 1.02 µM.
On the same count and under the same terms, with `O=C(O)[C@H]1O[C@@H](Oc2cc3oc(-c4ccccc4)cc(=O)c3c(O)c2O)[C@H](O)[C@@H](O)[C@@H]1O` [Baicalin] the figure was 65.8 ± 6.57 µM.
